Measured values: patent US9493466B2, “Treatment of cancer with TOR kinase inhibitors” (Signal Pharmaceuticals, LLC, priority 2011, dated 2016)

Columns and labels:
NCI-H441 tumors = assay: NCI-H441 NSCLC in vivo tumor growth model; parameters: species or system SCID mice; conditions: 1 to 10 mg/kg oral BID, up to 26 days; FIG. 9
Experimental: NCI-H441 NSCLC In Vivo Tumor Growth Model. A xenograft study was conducted with NCI-H441 tumor-bearing mice. SCID mice were inoculated subcutaneously with NCI-H441 cells in the flank region above the right hind leg. Following inoculation of the animals, the tumors were allowed to grow to about 100 mm^3 prior to randomization. On Day 14 following tumor cell inoculation, the mice bearing NCI-H441 tumors ranging between 87 and 136 mm^3 were pooled together and randomized into various treatment groups. Compound 1 was formulated in 0.5% CMC and 0.25% Tween 80 in water (as a suspension). The animals were orally administered vehicle (CMC-Tween) or Compound 1 twice daily (BID) for up to 26 days. Doses of Compound 1 ranged between 1 and 10 mg/kg. The positive control rapamycin (4 mg/kg, Q3D) was administered via the intraperitoneal (IP) route. Rapamycin was prepared as solution in 2% ethanol, 45% polyethyleneglycol 400, and 53% saline. Tumors were measured twice a week using calipers and tumor volumes were calculated using the formula of W^2×L/2. Statistical analysis was performed using a one-way analysis of variance (ANOVA) followed by Dunnett's post-hoc comparison with the vehicle-treated control group.

[1] = system: Hep3B2.1-7 human liver tumor cells; assay: Hepatocellular carcinoma (Hep3B2.1-7) orthotopic study; assay type: in vivo, mice; conditions: 10 mg/kg daily p.o., three weeks; FIGS. 17-18
Experimental: Hepatocellular Carcinoma (Hep3B2.1-7) Orthotopic Study. Hep3B2.1-7 human liver tumor cells were cultured in RPMI 1640 cell culture medium, supplemented with 10% FBS, 1% Glutamax and 1% penicillin-streptomycin. The cells were harvested by trypsinization, washed twice in HBSS and counted. The cells were then resuspended in HBSS:Matrigel™ (1:1, v/v) to a final concentration of 2×10^8 cells/mL. Prior to inoculation (while the animal was anesthetized via injectable Ketamil (10 mg/mL)/Xylazil (0.9 mg/mL) anesthetic), the skin on the incision site was swabbed with alcohol and an incision was made into the skin directly over the liver to expose the main lobe of the liver. The needle was introduced into the main lobe of the liver, where 2×10^6 Hep3B2.1-7 cells (in 10 μL with 50% Matrigel™) were discharged. Fourteen days post-inoculation, a satellite group of mice were culled to assess the presence of tumors in the liver.
Compound 1 powder was suspended in 0.5% CMC/0.25% Tween80 to achieve a stock concentration of 2 mg/mL. […]
The Vehicle Control and Test Articles were administered in a dosing volume of 5 mL/kg. Each animal's body weight was measured immediately prior to dosing. The volume of dosing solution administered to each animal was calculated and adjusted based on individual body weight. […]

MM = assay: Phase 1/2 study Part B: tumor response, MM; assay type: in vivo, human; conditions: 11 evaluable patients, up to 9 cycles
From the text: In Part B, subjects may start Compound 1 at the MTD and/or a lower dose level based on safety, PK and PD data from Part A. Approximately 150 subjects will be treated and evaluated for safety and preliminary antitumor activity after every two cycles of therapy. Tumor types include non-small cell lung cancer (NSCLC), glioblastoma multiforme (GBM), hepatocellular carcinoma (HCC), gastrointestinal neuroendocrine tumor of non-pancreatic origin (NET), diffuse large B-cell lymphoma (DLBCL), multiple myeloma (MM), and hormone receptor positive breast cancer (HRPBC). Up to 20 subjects will be enrolled in each tumor type.
Subjects will be evaluated for efficacy every 2 cycles through cycle 6 and every 3 cycles thereafter. The primary efficacy variable is response. Tumor assessments, including imaging (CT, MRI and/or PET) of the chest and abdomen and other sites as appropriate, will be performed during Screening. Subjects with brain lesions will also have brain scans at Screening and during follow-up tumor assessments. […] Subjects will be evaluated for tumor response on completion of Cycle 2, 4, 6, and so on. […]
For Part B, efficacy variables to be analyzed include tumor response at the end of treatment, the proportion of subject alive and progression-free, and duration of response. […]

## CO[C@H]1CC[C@H](N2C(=O)CNc3ncc(-c4ccc(C(C)(C)O)nc4)nc32)CC1 [Compound 1, 7-(6-(2-hydroxypropan-2-yl)pyridin-3-yl)-1-((1r,4r)-4-methoxycyclohexyl)-3,4-dihydropyrazino-[2,3-b]pyrazin-2(1H)-one]
NCI-H441 tumors
  tumor growth: significantly inhibited
[1]
  tumor growth inhibition: significant tumor growth inhibition
MM
  tumor responses (IURCMM criteria): No tumor responses
